The source of these data is patent publication US6509163B1, “Methods of screening modulators of mammalian P2X7 purinergic receptors” (Glaxo Group Limited, priority 1997, dated 2003).

Format in all cases: cell-based
The target of one experiment is T1, rP2X7 receptor (Rattus norvegicus, UniProt Q64663).
T1 construct: yielding a construct that encoded the entire P2X7 protein; expressed in transfected cells
T1 sequence (Q64663 1-595): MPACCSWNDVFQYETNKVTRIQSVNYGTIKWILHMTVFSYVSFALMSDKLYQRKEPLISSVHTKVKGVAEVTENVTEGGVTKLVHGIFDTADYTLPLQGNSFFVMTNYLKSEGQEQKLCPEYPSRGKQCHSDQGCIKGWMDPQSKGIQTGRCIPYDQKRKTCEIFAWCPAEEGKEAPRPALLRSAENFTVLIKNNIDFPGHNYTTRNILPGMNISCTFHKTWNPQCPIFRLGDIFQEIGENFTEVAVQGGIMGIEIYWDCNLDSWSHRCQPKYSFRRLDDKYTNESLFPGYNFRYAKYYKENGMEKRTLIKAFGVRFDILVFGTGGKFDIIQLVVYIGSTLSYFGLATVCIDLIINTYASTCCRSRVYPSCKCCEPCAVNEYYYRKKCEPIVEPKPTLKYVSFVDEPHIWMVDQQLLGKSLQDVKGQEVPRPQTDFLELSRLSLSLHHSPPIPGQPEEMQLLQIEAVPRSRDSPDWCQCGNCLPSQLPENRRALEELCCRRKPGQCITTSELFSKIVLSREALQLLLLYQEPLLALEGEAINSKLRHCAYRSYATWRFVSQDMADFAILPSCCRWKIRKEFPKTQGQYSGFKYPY
Kind of experiment: Whole-cell recordings in HEK293 cells transiently transfected with rP2X7 receptors (Example 3). Here is the method: Cell culture. HEK293 cells were transiently transfected with cDNA (1 μg/ml) and lipofectin dissolved in Optimem (GIBCO) placed into petri dishes containing four coverslips onto which cells were plated at a density of about 8×10^4/coverslip. Cells were washed 5 h later and normal DMEM applied. Electrophysiological studies or dye uptake measurements were carried out 18-49 h later. For each set of transfections, parallel experiments were performed on HEK cells transfected with cDNA encoding both rP2X7 and hP2X7 receptors.
Electrophysiological experiments. Whole-cell recordings were made using the EPC9 patch-clamp amplifier and Pulse acquisition programs (HEKA, Lambrecht, Germany). Patch pipettes (5-7 MΩ) contained (mM) CsCl or NaCl 154, EGTA 10, HEPES 5. The normal extracellular solution contained (mM) NaCg 147, KCl2, CaCl2 2, MgCl2 1, HEPES 10 and glucose 12, and the “low divalent” solution had no magnesium and 0.3 mM CaCl2. Agonists were delivered by U-tube delivery system; antagonists, when applied, were present in both superfusion and U-tube. Experiments were carried out at room temperature.

For a further experiment, the target named is T2, P2X7ΔC receptor (Rattus norvegicus, UniProt Q64663).
T2 construct: the resulting protein (P2X7ΔC) was P2X7 (1-418); expressed in transfected cells; host or cells: HEK293 (transient)
T2 sequence (Q64663 1-418): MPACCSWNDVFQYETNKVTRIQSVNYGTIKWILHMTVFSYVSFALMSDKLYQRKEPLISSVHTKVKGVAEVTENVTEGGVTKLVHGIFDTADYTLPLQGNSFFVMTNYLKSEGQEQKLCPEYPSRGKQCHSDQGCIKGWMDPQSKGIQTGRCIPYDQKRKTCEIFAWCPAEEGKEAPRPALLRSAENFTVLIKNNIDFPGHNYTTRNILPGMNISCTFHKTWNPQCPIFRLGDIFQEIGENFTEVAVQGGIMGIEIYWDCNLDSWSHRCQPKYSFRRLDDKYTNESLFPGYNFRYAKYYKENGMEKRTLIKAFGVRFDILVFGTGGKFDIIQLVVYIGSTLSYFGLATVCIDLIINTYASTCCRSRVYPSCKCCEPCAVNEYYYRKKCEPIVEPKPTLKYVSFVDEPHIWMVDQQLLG
Kind of experiment: Whole-cell recordings in HEK293 cells transiently transfected with P2X7ΔC cDNA. The following applies: 30 μM BzATP, normal solution, holding potential −70 mV, transiently transfected HEK cells, n=18. From the text: A 440-base pair (bp) fragment of P2X7 was amplified with inosine-containing degenerate oligonucleotides from several peripheral autonomic ganglia (Buell et al, EMBO J. 15:55 (1996)). […] An additional 468 bp of 5′ cDNA was cloned by rapid amplification of cDNA ends-polymerase chain reaction (RACE-PCR; Life Technologies, Bethesda, MD) using poly(A)^+ RNA from the medial habenula. P2X7 receptor-specific sequences were amplified with two rounds of nested PCR, for which sense primers were […] and […] and antisense primers were […] and […]. A shared restriction site (Bgl II) permitted ligation of the RACE-PCR product and of the partial cDNA, yielding a construct that encoded the entire P2X7 protein. This chimera (GenBank accession number X95882) was expressed in pcDNA3 (Invitrogen, San Diego, Calif.), sequenced by fluorescent DNA sequencing (Perkin Elmer, Foster City, Calif.), and confirmed by isolation of other full-length P2X7 cDNAs from a rat brain cDNA library (Clontech, Palo Alto, Calif.). One of these included a stop codon 130 bp upstream from the ATG. The COOH-terminus was removed by excision of a Xcm I-Not I fragment, and the resulting protein (P2X7ΔC) was P2X7 (1-418). […]

In experiment [1] the target is T3, P2X7 receptor (Rattus norvegicus, UniProt Q64663).
T3 construct: yielding a construct that encoded the entire P2X7 protein; expressed in transfected cells
T3 sequence (Q64663 1-595): T1 sequence (Q64663 1-595)
Kind of experiment: Whole-cell recordings of agonist-evoked currents in HEK293 cells transfected with rat P2X7 cDNA (Example 2). The following applies: inward currents, brief application (0.5 to 2 s).

Experiment [2] has as its target T3, P2X7 receptor. Kind of experiment: YO-PRO-1 uptake, cell counts, in HEK cells stably expressing P2X7 receptor. The following applies: incubation with BzATP for 3 to 5 min, low concentration of divalent cations. As for the experimental part:
YO-PRO-1 (10 μM; Molecular Probes, Eugene, Oreg.) was added to the superfusion fluid during electrophysiological recordings 3 to 6 min before switching to low divalent solution and washed out upon switching back to normal divalent solution, after which the fluorescent lamp was turned on and cells were examined with a fluorescein isothiocyanate filter. For cell counts, 500 cells per cover slip were counted in each case.

In the case of `Nc1ncnc2c1ncn2[C@@H]1O[C@H](COP(=O)(O)OP(=O)(O)OP(=O)(O)O)[C@@H](OC(=O)c2ccc(C(=O)c3ccccc3)cc2)[C@H]1O` [BzATP, 3′-O-(4-benzoyl)benzoyl ATP], the “cation current induced by maximal concentration of BzATP” value at rP2X7 receptor (30 μM BzATP, n=12) came out at 1869±286 pA. In addition, the “current measured at 30 s, of the peak current” value at rP2X7 receptor (low extracellular divalent concentrations, n=13) came out at 80±3%. Also, on P2X7ΔC receptor, the “Current amplitude (mean±SEM) to BzATP” value amounted to 590±95 pA. Also, on P2X7 receptor [1], the “agonist order of potency” value is reported as “BzATP>>ATP>2MeSATP>ATP-γ-S>>ADP”. Further, the “stably transfected cells that took up YO-PRO-1” value on P2X7 receptor [2] is reported as above 85%.
